Results from patent US5242945A, “Tetronic and thiotetronic acid derivatives as phospholipase A2 inhibitors” (American Home Products Corporation, priority 1991, dated 1993).
pIC50: −log10 of the molar value.

Experiments:
[1] = tested on: TPA-induced ear edema; experiment: 12-o-tetradecanoylphorbol acetate (TPA)-induced murine ear edema assay; format: in vivo, mouse (Swiss Webster); details: oral, TPA-induced
Experimental: The ability of the compounds of the invention to inhibit inflammatory responses is examined in the in vivo arachidonic acid (AA)/12-o-tetradecanoylphorbol acetate (TPA)-induced murine ear edema assay.
Swiss Webster female mice (Buckshire), approximately 8 weeks old are placed into plastic boxes in groups of six. Eight groups of mice receive AA topically on the right ear, and another 8 groups receive TPA topically on the right ear. AA and TPA are dissolved in acetone at concentrations of 100 mg/ml and 100 μg/ml respectively. The phlogistics are applied to the right ear by the means of an automatic pipet. Volumes of 10 μl are applied to the inner and outer surfaces of the ear. Each mouse receives either 2 mg/ear AA or 2 μg/ear TPA. The left ear (control) receives acetone delivered in the same manner. Topical and subcutaneous dosing regimens are as follows 1) drugs are given 30 minutes prior to AA treatment and 2) drugs are given 30 minutes after treatment with TPA.
Measurements are taken with Oditest calipers, 0-10 mm with 0.01 graduations. The right and left ears are measured after 1 hr AA-induced inflammation and 4 hours after TPA-induced inflammation.
The difference between right and left ear thickness is calculated and the significance is determined by a one way analysis of variance with Dunnett's comparisons to control (P=0.05). Drug effects are expressed as a percent change from control values: [formula]

[2] = tested on: AA-induced ear edema; experiment: arachidonic acid (AA)-induced murine ear edema assay; format: in vivo, mouse (Swiss Webster); details: for ED50: Mus musculus, 1 h, oral
[3] = tested on: purified PLA2, from the diamond back cotton mouth snake (A. piscivorus piscivorus); experiment: in vivo PLA2 murine paw edema assay; set-up: species or system A. piscivorus piscivorus PLA2 in CD-1 mice
Experimental: The ability of the compounds of the invention to inhibit paw edema induced by the exogenous administration of PLA2 is measured in the in vivo PLA2 murine paw edema assay.
Non-fasted, male CD-1 mice (8 weeks old; 31-36 grams) are placed in plastic boxes in groups of six. The right hind paw volume is measured using mercury plethysmography (zero time). Compounds are dosed orally (0.5 mL of 0.5% Tween-80) 1 or 3 hours prior to PLA2 injection or intravenously (0.2 mL in 0.3% dimethylsulfoxide/saline) 3 minutes prior to PLA2 injection. A solution of purified PLA2, from the diamond back cotton mouth snake (A. piscivorus piscivorus) is prepared in saline at a concentration of 6 μg/mL. Fifty (50) μL (0.3 μg) of this PLA2 solution is injected subcutaneously into the right hind paw with a plastic 1 mL plastic syringe (27 gauge, 1" needle). Paw volume of the injected paw is measured again at 10 minutes, 30 minutes and 60 minutes after PLA2 injection. Animals are euthanized with CO2 at the completion of the study.
The paw edema is calculated by subtracting the zero time volume from the volume recorded at each time period. Mean paw edema for each treatment group is then calculated and expressed as (μL±S.E.). Drug effects are expressed as a percent change from control (vehicle) values. Statistical significance is determined by a one-way analysis of variance with LSD comparison to control (p<0.05). ED50 's are determined using […].

[4] = biological target: T1, human synovial fluid PLA2 (Homo sapiens, UniProt P14555); experiment: in vitro isolated phospholipase A2 assay, human synovial fluid PLA2; format: biochemical; details: for pIC50: Table IV, read-out: IC50 HSF (human synovial fluid); for inhibition at 10 µM: + values given without explanation, read-out: % Inhibition HSF (human synovial fluid)
T1 construct: Purified human synovial fluid; from tissue; host or cells: human synovial fluid
T1 sequence (P14555 21-144): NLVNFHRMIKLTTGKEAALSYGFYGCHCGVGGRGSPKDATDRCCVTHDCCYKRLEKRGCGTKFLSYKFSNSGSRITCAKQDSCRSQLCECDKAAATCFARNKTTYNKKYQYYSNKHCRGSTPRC
Summary of the method: (§1)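 PLA2 from semipurified human platelet acid extract or purified human synovial fluid, preincubated 30 min at room temperature with compound. ³H-arachidonate-labelled E. coli substrate then added in Tris-HCl pH 7.5, with enzyme giving about 12% hydrolysis. Reaction ran 10 min at 37° C; released arachidonic acid recovered on NH2 columns and measured by β-counting.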

[5] = tested on: carrageenan paw edema; experiment: rat carrageenan paw edema assay; format: in vivo, rat (Sprague-Dawley); details: 50 mg/kg peroral
Experimental: The compounds of the invention are further tested in the rat carrageenan paw edema assay to determine their ability to inhibit the acute inflammatory response.
140-180 g Male Sprague-Dawley rats, in groups of 6 animals are injected subcutaneously in the right paw with 0.1 mL of 1% carrageenan at zero time. Mercury plethysmographic readings (mL) of the paw are made at zero time and 3 hours later. Test compounds are suspended or dissolved in 0.5% methylcellulose and given perorally 1 hour prior to carrageenan administration.
The increase in paw volume (edema in mL) produced by the carrageenan is measured. Paw edema is calculated (3 hour volume minus zero time volume), and percent inhibition of edema is determined. Unpaired Student's t-test is used to determine statistical significance.

[6] = biological target: T2, human platelet PLA2 (Homo sapiens, UniProt P14555); experiment: in vitro isolated phospholipase A2 assay, human platelet PLA2; format: biochemical; details: at 10 μM; + values given without explanation; read-out: % Inhibition HP (human platelet)
T2 construct: platelet acid extract PLA2; from tissue; host or cells: human platelets, semipurified acid extract
T2 sequence (P14555 21-144): T1 sequence (P14555 21-144)
Summary of the method: as §1

[7] = tested on: lipoxygenase (LTB4 or 5HETE synthesis); experiment: inhibition of LTB4 and 5-HETE synthesis by rat glycogen-elicited polymorphonuclear leukocytes; format: cell-based, rat (female Wistar); details: Leukocyte; at 10 μM; rat PMN; + with * denotes potentiation; read-out: % Inhibition LTB4
Text: This is especially true with respect to 5,12-diHETE, which is also denoted as LTB4 [see Ford-Hitchinson, J. Roy. Soc. Med., 74, 831 (1981)]. Compounds which inhibit the PLA2 -mediated release of arachidonic acid thereby effectively prevent the oxidation of arachidonic acid to the various leukotriene products via the lipoxygenase cascade. Accordingly, the specificity of action of PLA2 inhibitors can be determined by the activity of test compounds in this assay, which measures the ability of compounds to inhibit the synthesis of LTB4 and 5-HETE by rat glycogen-elicited polymorphonuclear leukocytes (PMN) in the presence of exogenous substrate.
(§2) Rat polymorphonuclear leukocytes (PMNs) are obtained from female Wistar rats (150-200 g) which receive an injection of 6% glycogen (10 ml i.p.). Rats are sacrificed 18-24 hours post injection by CO2 asphyxiation and the elicited cells are harvested by peritoneal lavage using physiological saline (0.9% NaCl). The exudate is centrifuged at 400 xg for 10 minutes. The supernatant fluid is discarded and the cell pellet is resuspended to a concentration of 2.0×10^7 cells/mL in HBSS containing Ca^++ and Mg^++ and 10 μM L-cysteine.
(§3) To 1 mL aliquots of cell suspension, test drugs or vehicle are added, then preincubated at 37° C. for 10 minutes. A23187 (1 μM), [^3 H]-AA (3.0 μCi/mL) and unlabeled AA (1 μM) are then added and the samples are further incubated for 10 minutes. The reaction is terminated by centrifugation and pelleting cells. Supernatants are then analyzed by HPLC analysis on a 15 cm×4.6 mm ID supelcosil LC-18 (Supelco)(3M) column, using a two solvent system at a flow rate of 1.4 mL total flow as follows:
Injections: 140 μL of each supernatant is injected directly onto column and ^3 H arachidonic acid metabolites are monitored using an on-line radioactivity detector (Ramona, IN/US, Fairfield, N.J.).
Co-chromatography with standard [^3 H] leukotriene B4 (LTB4) in medium of stimulated PMN exposed to drug is compared to that found in medium of stimulated cells exposed to no drug, generating percent inhibition.
Results are expressed as percent inhibition at a given compound dose or as an IC50 value.

[8] = tested on: cyclooxygenase (PGE2 or TxB2 synthesis); experiment: inhibition of synthesis of cyclooxygenase products PGE2 and TxB2 by rat polymorphonuclear leukocytes; format: cell-based, rat (female Wistar); details: Leukocyte; at 10 μM; rat PMN; + with * denotes potentiation; read-out: % Inhibition TxB2
Experimental: as §2, §3
In this assay, the procedure of Example 58 is carried out as described. However, in order to determine cyclooxygenase activity, the samples are co-chromatographed with authentic reference [^3 H]-TxB2 or [^3 H]-PGE2.
The results are calculated as in Example 58 and presented below: […]

[9] = tested on: lipoxygenase and/or cyclooxygenase pathways of arachidonic acid metabolism; experiment: in vivo murine zymosan peritonitis assay; set-up: species or system mouse (CD-1)
Experimental: The compounds of the invention are evaluated for their ability to inhibit the lipoxygenase and/or cyclooxygenase pathways of arachidonic acid metabolism in the in vivo murine zymosan peritonitis assay.
Male CD-1 mice (8 weeks old) are placed in plastic boxes in groups of six. Animals are injected with 1 mL i.p. of either 1% zymosan in pyrogen free 0.9% saline or saline (unstimulated control). Compounds are dosed orally 1 hour prior to zymosan injection. Twenty minutes after zymosan injection, the mice are asphyxiated by CO2 inhalation and the peritoneal cavity is lavaged with 2 mL ice cold Hanks Balanced Salt Solution (HBSS) without CaCl2, MgSO4. 7H2 O and MgCl2.6H2 O. Peritoneal lavage fluid from each mouse is removed by syringe and placed in 5 mL plastic test tubes put on ice and volume is noted. Preparation of samples for evaluation by ELISA is as follows: Samples are centrifuged at 800 xg for 15 minutes; 1 mL of the supernatant is added to 8 mL ice cold methanol and kept at -70° C. overnight to precipitate protein; and samples are then centrifuged at 800 xg for 15 minutes, followed by a drying procedure in a Savant speed vac concentrator. The samples are reconstituted with 1 mL ice cold ELISA buffer and stored at -70° C. until assayed. The assay for eicosanoids (LTC4 and 6-keto-PGF1α) is performed according to conventional ELISA procedures.
Compounds to be tested orally are suspended in 0.5% Tween 80. Compounds to be tested intraperitoneally are suspended in 0.5% methylcellulose in 0.9% saline.
The total metabolite level in lavage fluid/mouse is calculated and the significance is determined by a one-way analysis of variance with LSD comparisons to control (p≤0.05). Drug effects are expressed as a percent change from control values.

Row | Structure (SMILES) | ED50 [2] | pIC50 [4] | inhibition at 10 µM [4] | % Inhibition [5] | inhibition at 10 µM [6] | inhibition at 10 µM [7] | inhibition at 10 µM [8] | % Change in Edema 10 min ([3]; 10 mg/kg i.v.) | % Change in Edema 30 min ([3]; 10 mg/kg i.v.) | % Change in Edema 60 min ([3]; 10 mg/kg i.v.) | % Change in Edema 10 min ([3]; 100 mg/kg p.o.) | % Change in Edema 30 min ([3]; 100 mg/kg p.o.) | % Change in Edema 60 min ([3]; 100 mg/kg p.o.) | other results
1 | NC1=NN(c2cccc(C(F)(F)F)c2)CC1 [BW 755c, reference compound] | 65 mg/kg | – | – | – | – | – | – | – | – | – | – | – | – | ED50 ([1]; Mus musculus, 4 h, read-out: Oral ED50 (TPA)): 88 mg/kg; ED50 at +10 min. ([3]; p.o., at +10 min): 50 mg/kg
2 | COc1ccc(/C=C/C(=O)C2=C(O)COC2=O)cc1 [Example 6, (E)-4-Hydroxy-3-(3-(4-methoxyphenyl)-1-oxo-2-propenyl)-2 (5H)-furanone] | – | 5.06 | 59% | 31% | 0% | – | – | – | – | – | – | – | – | –
3 | O=C(/C=C/c1ccc(Cl)cc1)C1=C(O)COC1=O [Example 7, (E)-4-Hydroxy-3-(3-(4-chlorophenyl)-1-oxo-2-propenyl)-2(5H)-furanone] | – | 5.74 | 98% | 47% | 0% | 13% | 18% | -19% | +39% | +15% | -24% | -4% | -9% | –
4 | O=C(/C=C/c1cccc([N+](=O)[O-])c1)C1=C(O)COC1=O [Example 12, (E)-4-Hydroxy-3-(3-(3-nitrophenyl)-1-oxo-2-propenyl)-2 (5H)-furanone] | – | 5.70 | 82% | 30% | 11% | 5% | 9% | -11% | -19% | +24% | -27% | -33% | -2% | –
5 | O=C1CCN(c2ccccc2)N1 [Phenidone] | 85 mg/kg | – | – | – | – | – | – | – | – | – | – | – | – | –
6 | COc1ccc2c(c1)c(CC(=O)O)c(C)n2C(=O)c1ccc(Cl)cc1 [indomethacin] | – | – | – | – | – | – | – | – | – | – | – | – | – | Oral ED50 (TPA) [1]: inactive at 10; Oral ED50 (AA) [2]: inactive at 10; % Inhibition LTC4 ([9]; 10 mg/kg p.o.): +25%; ED50 LTC4 ([9]; p.o.): Not Active
